Data published in ChEMBL document CHEMBL1132097, “Fluorobenzamidrazone thrombin inhibitors: influence of fluorine on enhancing oral absorption” (Bioorg Med Chem Lett, 1999).

Key:
[1] = Absorption behavior was judged by the peak blood concentration determined after oral dose of 30 mg/kg in rats.; format: ADME, organism-based; design: dose 30 mg/kg, route oral; conditions: rat
[2] = Absorption behavior was judged by the area under the curve, determined after oral dose of 30 mg/kg in rats.; format: ADME, organism-based; design: dose 30 mg/kg, route oral; conditions: rat, in vivo
[3] = biological target: T1, Prothrombin (Homo sapiens, UniProt P00734); assay: Inhibitory constant against human thrombin was determined in vitro.
[4] = biological target: T2, Serine protease 1 (Bos taurus, UniProt P00760); assay: Inhibitory constant against bovine trypsin was determined in vitro.
T2 sequence (P00760 whole entry): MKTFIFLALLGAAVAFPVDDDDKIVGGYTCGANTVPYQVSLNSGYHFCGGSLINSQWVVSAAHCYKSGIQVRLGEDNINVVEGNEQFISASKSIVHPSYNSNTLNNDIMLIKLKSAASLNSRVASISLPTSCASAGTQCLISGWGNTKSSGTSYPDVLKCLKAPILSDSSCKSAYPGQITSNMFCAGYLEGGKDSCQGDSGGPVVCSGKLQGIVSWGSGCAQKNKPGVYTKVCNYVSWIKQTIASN

[5] = biological target: T1, Prothrombin; assay: Inhibitory constant against human thrombin was determined in vitro
[6] = biological target: T2, Serine protease 1; assay: Inhibitory constant against bovine trypsin was determined in vitro

Structure (SMILES) | Cmax [1] [nM] | AUC [2] [µM·h] | Ki [3] [nM] | Ki [4] [nM] | Ki [5] [nM] | Ki [6] [nM]
CCCc1ccc(S(=O)(=O)N[C@@H](Cc2ccc(C(=N)NN)c(F)c2)C(=O)N(C)C2CCCC2)cc1 | 2780 | 4.17 | 1.8 | 22000 |  | 
COc1ccc2cc(S(=O)(=O)N[C@@H](Cc3ccc(C(N)=NN)cc3F)C(=O)N(C)C3CCCC3)ccc2c1 | 2410 | 3.28 | 0.2 | 2000 |  | 
CN(C(=O)[C@H](Cc1ccc(C(N)=NN)c(F)c1)NS(=O)(=O)c1ccc2ccccc2c1)C1CCCC1 | 4130 | 6.67 | 5.5 | 25000 |  | 
CN(C(=O)[C@H](Cc1ccc(C(N)=NN)c(F)c1)NS(=O)(=O)c1ccc2c(c1)CCCC2)C1CCCC1 | 1340 | 1.63 | 0.9 | 25000 |  | 
CCCc1ccc(S(=O)(=O)N[C@@H](Cc2ccc(C(N)=NN)cc2)C(=O)N(C)C2CCCC2)cc1 | 1170 | 2.23 |  |  | 0.2 | 3500
CN(C(=O)[C@H](Cc1ccc(C(=N)NN)cc1)NS(=O)(=O)c1ccc2ccccc2c1)C1CCCC1 | 1610 | 2.33 | 0.4 | 33000 |  | 
CN(C(=O)[C@H](Cc1ccc(C(N)=NN)cc1)NS(=O)(=O)c1ccc2c(c1)CCCC2)C1CCCC1 | 360 | 0.817 | 0.1 | 4600 |  | 
CN(C(=O)[C@H](Cc1ccc(C(=N)NN)cc1F)NS(=O)(=O)c1ccc2ccccc2c1)C1CCCC1 | 1630 | 1.83 | 2 | 11000 |  | 
CCCc1ccc(S(=O)(=O)N[C@@H](Cc2ccc(C(N)=NN)cc2F)C(=O)N(C)C2CCCC2)cc1 | 1350 | 2.68 | 0.7 | 4000 |  | 
COc1ccc2cc(S(=O)(=O)N[C@@H](Cc3ccc(C(N)=NN)cc3)C(=O)N(C)C3CCCC3)ccc2c1 | 1130 | 2.62 | 0.06 | 9200 |  | 
CN(C(=O)[C@H](Cc1ccc(C(=N)NN)cc1F)NS(=O)(=O)c1ccc2c(c1)CCCC2)C1CCCC1 | 1030 | 1.37 | 0.5 | 3000 |  | 
